Data on 1 compound can be found in the NIST ThermoML archive (doi:10.1016/j.fluid.2019.05.001).

Structures are written as SMILES. Numbers after ± are expanded uncertainties.

The conditions of the data set: Crystal; DTA.

On to `CCOC(=O)CCC[N+]1(C)CCCC1.[Br-]` [1-(4-ethoxy-4-oxobutyl)-1-methylpyrrolidinium bromide], for which the Normal melting temperature turned out to be 73.00 ± 1 °C.
